Laboratory results: US20030007964A1, “Method for treating rheumatoid arthritis with composition containing histone” (SAMYANG GENEX CORPORATION, priority 1998, published 2003)

Legend:
[1] = test system: collagen induced arthritis; assay: Treatment effect on collagen induced arthritis in mice, histone H2A and its active fragment (Example 7); assay type: in vivo
Protocol: (§1) Five-week old DBA/1J female mice were imported from Charles River Japan and allowed to adapt in an animal room for two weeks before using them in the experiments at the age of 7 weeks (20-25 g).
(§2) Isolated and quantified type II collagen of chicken (Sigma Chemical Co., St. Louis, Mo., U.S.A.) was solubilized in 0.1 N acetic acid at a concentration of 2 mg/ml. The solution was mixed with an equal amount of a complete Freund's adjuvant at 4° C. to form a suspension. One hundred microliters of this mixture was injected […] around the origin of the tail vein and further inoculated at 3 and 6 weeks after the first injection (D. E. Trentham et. al., Autoimmunity to Type II collagen: An Experimental Model of Arthritis, J. Exp. Med. 146; 857-868 (1977)). Arthritis was induced from the 4th week after the first injection.
(§3) Clinical incidence of arthritis % (C.I.A) and arthritis index were examined. C.I.A. was expressed as the percentage of mice that have arthritic symptoms among the total mice. The degree of inflammation expressed as the arthritis index was categorized from 0 to 3 by 2 researchers every week as below. Pictures of the feet of some mice were taken 6 weeks after the collagen administration.
(§4) 1: One or two toes were swollen with suffusion or had minimal swelling
(§5) 2: Definite suffusion or local swelling in many toes
(§6) 3: Observation of severe edema and swelling up to the knee and restricted use of the feet.
(§7) The arthritis index was calculated for 4 feet (2 hind feet and 2 fore feet) giving the maximum value of 12. An index of 6-8 was considered severe since collagen induced arthritis invades in general mainly the hind feet (Korea J. Immunol. 18, 437, 1996; J. Immunol. 151, 6546,1993).
As a test group to examine the treatment effect, 5 mice for histone H2A and 7mice for histone H2A active fragment were used. 1 mg/kg body weight of histone H2A or histone H2A active fragment was administered into the mice via intraperitoneal injection 2 times every week from the 6th week (after arthritis induction) up to the 10th week. Histone H2A or histone H2A active fragment was diluted at a concentration of 5 mg/ml in PBS. As a comparison group, 1 mg/kg body weight of dexamethasone, a currently available rheumatoid arthritis drug, was administered into 7 mice via an intraperitoneal injection 2 times every week from the 6th week (after arthritis induction) up to the 10th week. As a control group, […] of PBS was administered into 7 mice every week from the third week up to 10th week after the first collagen injection.

[2] = test system: collagen induced arthritis; assay: Preventive effect against collagen induced arthritis in mice (Example 3); assay type: in vivo, DBA/1J female mice; conditions: preventive regimen
Protocol: as §1, §2, §3, §4, §5, §6, §7
As a test group to examine the preventive effect, 1 mg/kg body weight of histone H1 was administered into 10 mice via intraperitoneal injection 2 times every week from the third week (before arthritis induction) up to 10th week after the first injection. Histone H1 was diluted at a concentration of 5 mg/ml in PBS. As a comparison group, 1 mg/kg body weight of dexamethasone, a currently available rheumatoid arthritis drug, was administered into 10 mice via intraperitoneal injection 2 times every week from the third week (before arthritis induction) up to 10th week after the first injection. As a control group, 300 μl of PBS was administered into 20 mice 2 times every week from the third week up to 10th week after the first collagen injection.

[3] = test system: collagen induced arthritis; assay: Treatment effect on collagen induced arthritis in mice, histone H1 (Example 4); assay type: in vivo, DBA/1J female mice; set-up: key to arthritis index: sum of 0–3 per-foot scores over 4 feet, max 12
Protocol: as §1, §2, §3, §4, §5, §6, §7
As a test group to examine the treatment effect, 1 mg/kg body weight of histone H1 was administered into 10 mice via intraperitoneal injection 2 times every week from the 6th week (after arthritis induction) up to the 10th week. Histone H1 was diluted at a concentration of 5 mg/ml in PBS. As a comparison group, 1 mg/kg body weight of dexamethasone, a currently available rheumatoid arthritis drug, was administered into 10 mice via an intraperitoneal injection 2 times every week from the 6th week (after arthritis induction) up to the 10th week. Identical control group was used as in EXAMPLE 1.

[4] = test system: anti-collagen antibody (Type II collagen); assay: Serum anti-collagen antibody level by ELISA; assay type: in vivo, mice; conditions: serum at 10th week
Protocol: At the 10th week the serum was isolated from the blood obtained through a heart puncture. The serum was kept at −80° C. and thawed immediately before the experiment to measure the anti-collagen antibody level by performing an ELISA (D. E. Tretham & R. A. Dynesius-Trentham, J. Immunol. 130; 2689-2692 (1983)). Type II collagen (25 μg/ml) in 0.1 M PBS was placed in each well of a 96-well polystyrene microplate (Nunc, Denmark) and was incubated at 4° C. for 8 hours. After the incubation, the wells were washed several times with a PBS-0.05% Tween 20 solution. To prevent non-specific immune reactions, PBS-0.5% ovalbumin was added in each well and incubated for an hour at room temperature and subsequently washed again with the PBS-0.05% Tween 20 solution. The serum, diluted 500 times with a buffer solution was added in each well and reacted for 2 hours at room temperature and further washed with the PBS-0.05% Tween 20 solution. After reacting each well with alkaline phosphatase conjugated goat anti-mouse IgA and IgM for 2 hours and adding 1 mg/ml of p-nitrophenyl phosphate, the absorbance at 450 nm was measured. The anti-collagen antibody level was measured twice for each sample and averaged.
The anti-collagen antibody level was measured to estimate the immune reaction as in EXAMPLE 3. […]

[5] = test system: collagen induced arthritis; assay: Pathological observation of leg joints by H-E staining; assay type: in vivo, mice; conditions: treatment regimen; 10 weeks after antigen inoculation
Description: Mice were sacrificed by blood evacuation from the heart. The legs were cut immediately after the sacrifice and fixed in formalin. After the decalcification, legs were stained by hematoxylin-Eosin.

[6] = test group at 5th week, before administration (baseline)
[7] = treatment regimen from 6th week, 7th week
[8] = treatment regimen from 6th week, 8th week
[9] = treatment regimen from 6th week, 10th week

Histone H2A
arthritis index ([1]; 1 mg/kg i.p. 2 times every week from 6th week, 7th week): 4.80±0.45 | arthritis index ([1]; 1 mg/kg i.p. from 6th week, after the 9th week): 2.80 | arthritis index [1, 6]: 3.60±0.55

Histone H1
week at which arthritis was first observed after the inoculation ([2]; 1 mg/kg i.p.): 7 week | arthritis induction ([2]; 1 mg/kg i.p. 2 times every week from third week, up to the 6th week): complete prevention of arthritis induction | C.I.A. (clinical incidence of arthritis) ([2]; 1 mg/kg i.p., 7th week): 60% | C.I.A. (clinical incidence of arthritis) ([2]; 1 mg/kg i.p., 8th week): 60% | C.I.A. (clinical incidence of arthritis) ([2]; 1 mg/kg i.p., 10th week): 80% | arthritis index relative to the control group ([2]; 7th week): 60% | arthritis index ([2]; mice that had arthritis, 10th week): 2.25±1.26 | edema of fore feet (pictures) ([3]; 6th week after administration of the collagen): improvement of edema was observed | arthritis index [3, 6]: 3.33±0.58 | arthritis index ([3]; treatment regimen from 6th week, 6th week): 2.67±0.58 | C.I.A. (clinical incidence of arthritis) [3, 7]: 12.5% | arthritis index [3, 7]: 1.00 | C.I.A. (clinical incidence of arthritis) [3, 8]: 14.3% | arthritis index [3, 8]: 2 | C.I.A. (clinical incidence of arthritis) [3, 9]: 14.3% | arthritis index [3, 9]: 1.00 | fraction of the induced arthritis completely cured ([3]; treatment regimen from 6th week, after the 7th week): ⅔ | C.I.A. (clinical incidence of arthritis) ([3]; treatment regimen, 1 mg/kg i.p. 2 times every week from 6th week, 6th week): 37.5% | anti-collagen antibody level (absorbance at 450 nm) ([4]; preventive regimen, diluted 500 times): 0.588±.214 | anti-collagen antibody level (absorbance at 450 nm) ([4]; treatment regimen (from 6th week)): 0.540±170 | formation of pannus, erosion of cartilage or manifestation of inflammatory cells (H-E staining) [5]: not observed

C[C@@H]1C[C@H]2[C@@H]3CCC4=CC(=O)C=C[C@]4(C)[C@@]3(F)[C@@H](O)C[C@]2(C)[C@@]1(O)C(=O)CO [dexamethasone, reference compound]
arthritis index ([2]; 5 weeks): 2.00 | arthritis index ([2]; 6 weeks): 1.50 | C.I.A. (clinical incidence of arthritis) [3, 7]: 22.2% | arthritis index [3, 7]: 2.67 | C.I.A. (clinical incidence of arthritis) [3, 8]: 33.3% | arthritis index [3, 8]: 1.67 | C.I.A. (clinical incidence of arthritis) ([3]; treatment regimen from 6th week, 9th week): 22.2% | arthritis index [3, 9]: 3.00 | arthritis index ([1]; 1 mg/kg i.p. from 6th week, 8th week): 4.57 | arthritis index ([1]; 1 mg/kg i.p. from 6th week, 9th week): 1.86 | arthritis index ([1]; 1 mg/kg i.p. from 6th week, 10th week): 1.86
